One data set in a line: in vitro. Particulars: human, microsomes, pH 7.4.
The target in a further data set is human Notch 3 (Homo sapiens, UniProt Q9UM47). Description: Notch-CBF1 Transactivation Assay (Notch 3). Type of data set: cell-based. Particulars: HeLa cells co-transfected with truncated Notch 3 and CBF1 luciferase reporter; 18 hours incubation. The text has this:
Notch-CBF1 Transactivation Assay
The Notch-CBF1 (C-promoter binding factor I) cell based transactivation assay is based on the ability of the released Notch intracellular domain fragments (NICDs) to function as transcription factors in conjunction with CBF1 and other nuclear factors. Luciferase assays were used to measure the antagonism of Notch-CBF1 transcriptional activity. HeLa cervical cancer cells are transiently co-transfected with pCDNA3.1/Hygro plasmids containing truncated Notch 1, Notch 2, Notch 3, or Notch 4 receptors and a PGL3 luciferase reporter vector containing 4 copies of CBF1 binding site. The cells were then tested for Notch-CBF1 activity in the absence or presence of test compounds. HeLa cells, maintained in DMEM (high glucose with HEPES), 1× glutamine/penicillin/streptomycin and 10% Fetal Bovine serum, were transiently transfected in a T175 Flask (4.5×10^6 cells/flask) using the Monster Transfection Kit (Minis #MIR2906) according to manufacturers specifications. Table 9 denotes respective DNA quantity for the transfections.
Assay media (5 μL) containing test compounds in final concentrations ranging from 5 μM to 8.4×10^−5 μM (3 fold serial dilutions) were added to the cells and the cell plates were then incubated for 18 hours at 37° C. and 5% CO2. Control wells contained DMSO vehicle (total counts) or 0.5 μM of an in-house small molecule inhibitor (background counts). Duplicates were used for each sample. Luciferase activity was measured after a 20-minute incubation with 50 μl STEADY-GLO® luciferase reagents according to manufacturer's specifications (Promega, Cat. #E2550) and analyzed by Envision plate reader (PerkinElmer, Boston, Mass.).
The antagonist effect of compounds was expressed as 100×[1−(average sample-average background)/(average total−average background)] where sample is the luciferase activity in the presence of test compound, background is equal to the luciferase activity in the presence of the small molecule inhibitor control and the total is signal induced in DMSO wells.
(In general: A reporter such as luciferase makes a cellular process visible.)

pIC50: −log10 of the molar value.

Results on 23 compounds are retold here after patent publication US9273014B2, “Bis(fluoroalkyl)-1,4-benzodiazepinone compounds and prodrugs thereof” (Bristol-Myers Squibb Company, priority 2012, dated 2016).

human Notch 3, sequence (Q9UM47 40-2321 limits assumed): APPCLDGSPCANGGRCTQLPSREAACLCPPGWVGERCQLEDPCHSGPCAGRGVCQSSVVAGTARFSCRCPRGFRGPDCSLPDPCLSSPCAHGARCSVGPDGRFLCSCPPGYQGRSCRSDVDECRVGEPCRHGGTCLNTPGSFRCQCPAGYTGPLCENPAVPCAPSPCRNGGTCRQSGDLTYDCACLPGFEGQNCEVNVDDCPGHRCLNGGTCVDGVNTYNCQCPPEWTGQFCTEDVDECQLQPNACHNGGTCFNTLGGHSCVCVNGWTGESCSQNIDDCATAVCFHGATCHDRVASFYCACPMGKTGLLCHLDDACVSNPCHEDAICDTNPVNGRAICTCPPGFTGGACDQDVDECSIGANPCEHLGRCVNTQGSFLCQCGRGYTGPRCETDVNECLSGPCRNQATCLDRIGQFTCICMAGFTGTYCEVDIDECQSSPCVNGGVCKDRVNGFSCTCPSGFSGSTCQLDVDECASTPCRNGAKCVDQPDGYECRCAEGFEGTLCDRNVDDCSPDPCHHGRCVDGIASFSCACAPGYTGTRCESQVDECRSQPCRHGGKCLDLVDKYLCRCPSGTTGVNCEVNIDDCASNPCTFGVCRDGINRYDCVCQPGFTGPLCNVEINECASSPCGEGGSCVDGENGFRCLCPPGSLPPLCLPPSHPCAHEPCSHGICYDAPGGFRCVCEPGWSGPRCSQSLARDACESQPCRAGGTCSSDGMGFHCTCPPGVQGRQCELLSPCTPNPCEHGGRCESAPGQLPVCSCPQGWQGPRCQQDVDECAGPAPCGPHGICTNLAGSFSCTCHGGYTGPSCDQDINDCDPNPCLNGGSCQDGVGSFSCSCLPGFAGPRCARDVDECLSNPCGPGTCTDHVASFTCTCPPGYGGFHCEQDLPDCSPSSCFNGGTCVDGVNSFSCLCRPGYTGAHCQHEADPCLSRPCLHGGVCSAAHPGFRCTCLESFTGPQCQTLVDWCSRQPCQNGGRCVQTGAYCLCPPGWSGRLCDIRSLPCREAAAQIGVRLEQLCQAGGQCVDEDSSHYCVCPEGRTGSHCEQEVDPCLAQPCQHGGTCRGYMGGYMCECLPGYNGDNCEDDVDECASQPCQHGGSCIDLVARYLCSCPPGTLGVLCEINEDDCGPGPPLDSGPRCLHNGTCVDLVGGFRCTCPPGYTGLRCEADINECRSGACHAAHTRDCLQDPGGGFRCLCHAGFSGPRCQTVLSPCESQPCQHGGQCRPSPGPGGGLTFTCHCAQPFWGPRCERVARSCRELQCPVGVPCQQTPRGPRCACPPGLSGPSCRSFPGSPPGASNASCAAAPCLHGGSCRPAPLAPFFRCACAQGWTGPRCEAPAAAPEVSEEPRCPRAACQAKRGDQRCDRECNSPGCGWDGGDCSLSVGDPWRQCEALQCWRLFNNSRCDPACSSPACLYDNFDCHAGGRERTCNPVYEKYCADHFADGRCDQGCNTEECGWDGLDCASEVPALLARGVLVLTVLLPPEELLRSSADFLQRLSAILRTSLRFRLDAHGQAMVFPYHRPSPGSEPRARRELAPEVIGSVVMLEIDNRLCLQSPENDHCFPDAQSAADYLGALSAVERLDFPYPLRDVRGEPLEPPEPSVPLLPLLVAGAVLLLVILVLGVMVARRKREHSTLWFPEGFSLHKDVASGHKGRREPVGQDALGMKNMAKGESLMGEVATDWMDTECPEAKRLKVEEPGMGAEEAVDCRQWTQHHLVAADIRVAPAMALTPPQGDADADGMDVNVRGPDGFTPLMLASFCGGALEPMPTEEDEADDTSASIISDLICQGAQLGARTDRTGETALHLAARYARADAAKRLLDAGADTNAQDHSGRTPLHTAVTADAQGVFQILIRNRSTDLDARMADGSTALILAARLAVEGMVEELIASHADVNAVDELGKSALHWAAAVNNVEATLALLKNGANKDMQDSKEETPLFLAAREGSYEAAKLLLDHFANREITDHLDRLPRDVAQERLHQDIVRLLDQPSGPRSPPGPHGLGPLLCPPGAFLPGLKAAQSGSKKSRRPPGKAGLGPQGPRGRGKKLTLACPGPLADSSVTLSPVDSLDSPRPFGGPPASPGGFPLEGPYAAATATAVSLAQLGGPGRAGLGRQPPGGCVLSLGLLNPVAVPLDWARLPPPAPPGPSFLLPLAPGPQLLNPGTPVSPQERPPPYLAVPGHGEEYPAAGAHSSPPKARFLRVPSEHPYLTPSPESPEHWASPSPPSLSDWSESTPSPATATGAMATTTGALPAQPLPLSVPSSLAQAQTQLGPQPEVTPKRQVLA

`CCC[C@H](C(N)=O)[C@@H](CC(C)C)C(=O)N[C@H]1N=C(c2ccccc2)c2ccccc2N(C)C1=O` [Comparative Compound 45, reference compound]: the half-life (as a rule, how long it takes for the measured level to halve) in “in vitro” was 8 min.

Compound `C=CC[C@H](C(N)=O)[C@@H](CC(C)C)C(=O)N[C@H]1N=C(c2ccccc2)c2cc(Cl)ccc2N(C)C1=O` [Comparative Compound 46, reference compound] came in with a half-life in “in vitro” of 6 min.

Regarding `CCCC[C@H](C(N)=O)[C@@H](CC(C)C)C(=O)N[C@H]1N=C(c2ccc(Cl)cc2)c2ccccc2N(C)C1=O` [Comparative Compound 47, reference compound], the half-life in “in vitro” is 6 min.

`C=CC[C@H](C(N)=O)[C@@H](CC(C)C)C(=O)N[C@H]1N=C(c2ccccc2)c2ccccc2N(CCC)C1=O` [Comparative Compound 48, reference compound] showed a half-life in “in vitro” of 3 min.

Take `CCc1cccc2c1NC(=O)[C@@H](NC(=O)[C@H](CCC(F)(F)F)[C@H](CCC(F)(F)F)C(N)=O)N=C2c1cccc(Cl)c1` [Example 2, (2R,3S)—N-((3S)-5-(3-Chlorophenyl)-9-ethyl-2-oxo-2,3-dihydro-1H-1,4-benzodiazepin-3-yl)-2,3-bis(3,3,3-trifluoropropyl)succinamide]: in “in vitro”, the half-life was 32 min. Further, on human Notch 3, the negative-log IC50 (pIC50) (as a rule, the negative decadic logarithm of the IC50, by convention in mol/L) is 8.37.

`Cc1ccc(C2=N[C@H](NC(=O)[C@H](CCC(F)(F)F)[C@H](CCCC(F)(F)F)C(N)=O)C(=O)Nc3c(Cl)cccc32)cc1C` [Example 4, (2R,3S)—N-(9-Chloro-5-(3,4-dimethylphenyl)-2-oxo-2,3-dihydro-1H-1,4-benzodiazepin-3-yl)-3-(4,4,4-trifluorobutyl)-2-(3,3,3-trifluoropropyl)succinamide] yielded a half-life in the data set “in vitro” of 31 min. Also, the negative-log IC50 (pIC50) on human Notch 3 is 8.14.

In the case of `Cc1cc(C)cc(C2=N[C@H](NC(=O)[C@H](CCC(F)(F)F)[C@H](CCCC(F)(F)F)C(N)=O)C(=O)Nc3c(Cl)cccc32)c1` [Example 5, (2R,3S)—N-(9-Chloro-5-(3,5-dimethylphenyl)-2-oxo-2,3-dihydro-1H-1,4-benzodiazepin-3-yl)-3-(4,4,4-trifluorobutyl)-2-(3,3,3-trifluoropropyl)succinamide], the half-life in “in vitro” was 33 min. This compound also showed a negative-log IC50 (pIC50) at human Notch 3 of 8.40.

As to `CCc1cccc2c1NC(=O)[C@@H](NC(=O)[C@H](CCC(F)(F)F)[C@H](CCC(F)(F)F)C(N)=O)N=C2c1cccc(C)c1` [Example 6, (2R,3S)—N-((3S)-9-Ethyl-5-(3-methylphenyl)-2-oxo-2,3-dihydro-1H-1,4-benzodiazepin-3-yl)-2,3-bis(3,3,3-trifluoropropyl)succinamide], in the data set “in vitro”, the half-life amounted to 33 min. On human Notch 3, this compound had a negative logarithm of the IC50 (pIC50) of 8.35.

Consider `Cc1cccc2c1NC(=O)[C@@H](NC(=O)[C@H](CCC(F)(F)F)[C@H](CCC(F)(F)F)C(N)=O)N=C2c1cccc(Cl)c1` [Example 7, (2R,3S)—N-((3S)-5-(3-Chlorophenyl)-9-methyl-2-oxo-2,3-dihydro-1H-1,4-benzodiazepin-3-yl)-2,3-bis(3,3,3-trifluoropropyl)succinamide], for which the half-life in “in vitro” was > 120 min.

For the compound `Cc1cccc2c1NC(=O)[C@@H](NC(=O)[C@H](CCC(F)(F)F)[C@H](CCCC(F)(F)F)C(N)=O)N=C2c1cccc(Cl)c1` [Example 8, (2R,3S)—N-((3S)-5-(3-Chlorophenyl)-9-methyl-2-oxo-2,3-dihydro-1H-1,4-benzodiazepin-3-yl)-3-(4,4,4-trifluorobutyl)-2-(3,3,3-trifluoropropyl)succinamide], the half-life in “in vitro” turned out to be 71 min. Also, the negative-log IC50 (pIC50) on human Notch 3 was 7.94.

The compound `Cc1cccc(C2=N[C@H](NC(=O)[C@H](CCC(F)(F)F)[C@H](CCC(F)(F)F)C(N)=O)C(=O)Nc3c2cccc3C(F)(F)F)c1` [Example 9, (2R,3S)—N-((3S)-5-(3-Methylphenyl)-2-oxo-9-(trifluoromethyl)-2,3-dihydro-1H-1,4-benzodiazepin-3-yl)-2,3-bis(3,3,3-trifluoropropyl)succinamide] returned a half-life in “in vitro” of 113 min. In addition, the negative logarithm of the IC50 (pIC50) against human Notch 3 was 8.43.

Compound `Cc1cc(C)cc(C2=N[C@H](NC(=O)[C@H](CCC(F)(F)F)[C@H](CCC(F)(F)F)C(N)=O)C(=O)Nc3c(Cl)cccc32)c1` [Example 10, (2R,3S)—N-((3S)-9-Chloro-5-(3,5-dimethylphenyl)-2-oxo-2,3-dihydro-1H-1,4-benzodiazepin-3-yl)-2,3-bis(3,3,3-trifluoropropyl)succinamide] registered a half-life in “in vitro” of 54 min. The compound also gave a negative logarithm of the IC50 (pIC50) at human Notch 3 of 8.27.

Compound `Cc1cccc(C2=N[C@H](NC(=O)[C@H](CCC(F)(F)F)[C@H](CCCC(F)(F)F)C(N)=O)C(=O)Nc3c2cccc3C(F)(F)F)c1` [Example 11, (2R,3S)—N-((3S)-5-(3-Methylphenyl)-2-oxo-9-(trifluoromethyl)-2,3-dihydro-1H-1,4-benzodiazepin-3-yl)-3-(4,4,4-trifluorobutyl)-2-(3,3,3-trifluoropropyl)succinamide] showed a half-life in “in vitro” of 42 min.

In “in vitro”, `Cc1cccc(C2=N[C@H](NC(=O)[C@H](CCC(F)(F)F)[C@H](CCC(F)(F)F)C(N)=O)C(=O)Nc3c2cccc3C(C)C)c1` [Example 12, (2R,3S)—N-((3S)-9-Isopropyl-5-(3-methylphenyl)-2-oxo-2,3-dihydro-1H-1,4-benzodiazepin-3-yl)-2,3-bis(3,3,3-trifluoropropyl)succinamide] had a half-life of 53 min. On human Notch 3, the negative logarithm of the IC50 (pIC50) is 8.49.

In the data set “in vitro”, `CC(C)c1cccc2c1NC(=O)[C@@H](NC(=O)[C@H](CCC(F)(F)F)[C@H](CCC(F)(F)F)C(N)=O)N=C2c1ccccc1` [Example 13, (2R,3S)—N-((3S)-9-Isopropyl-2-oxo-5-phenyl-2,3-dihydro-1H-1,4-benzodiazepin-3-yl)-2,3-bis(3,3,3-trifluoropropyl)succinamide] registered a half-life of 48 min.

`Cc1cccc(C2=N[C@H](NC(=O)[C@H](CCC(F)(F)F)[C@H](CCCC(F)(F)F)C(N)=O)C(=O)Nc3c(OC4CC4)cccc32)c1` [Example 14, (2R,3S)—N-((3S)-9-(Cyclopropyloxy)-5-(3-methylphenyl)-2-oxo-2,3-dihydro-1H-1,4-benzodiazepin-3-yl)-3-(4,4,4-trifluorobutyl)-2-(3,3,3-trifluoropropyl)succinamide] registered a half-life in “in vitro” of 56 min.

Regarding `Cc1cccc(C2=N[C@H](NC(=O)[C@H](CCC(F)(F)F)[C@H](CCC(F)(F)F)C(N)=O)C(=O)Nc3c(OC4CC4)cccc32)c1` [Example 15, (2R,3S)—N-((3S)-9-(Cyclopropyloxy)-5-(3-methylphenyl)-2-oxo-2,3-dihydro-1H-1,4-benzodiazepin-3-yl)-2,3-bis(3,3,3-trifluoropropyl)succinamide], in “in vitro”, the half-life came out at 101 min.

With `NC(=O)[C@@H](CCCC(F)(F)F)[C@@H](CCC(F)(F)F)C(=O)N[C@H]1N=C(c2ccccc2)c2cccc(OC3CC3)c2NC1=O` [Example 16, (2R,3S)—N-((3S)-9-(Cyclopropyloxy)-2-oxo-5-phenyl-2,3-dihydro-1H-1,4-benzodiazepin-3-yl)-3-(4,4,4-trifluorobutyl)-2-(3,3,3-trifluoropropyl)succinamide], the half-life in the data set “in vitro” was 108 min. At human Notch 3, this compound had a negative logarithm of the IC50 (pIC50) of 8.43.

For the compound `COc1cccc2c1NC(=O)[C@@H](NC(=O)[C@H](CCC(F)(F)F)[C@H](CCC(F)(F)F)C(N)=O)N=C2c1cccc(C)c1` [Example 29, (2R,3S)—N-((3S)-5-(3-Methylphenyl)-9-methoxy-2-oxo-2,3-dihydro-1H-1,4-benzodiazepin-3-yl)-2,3-bis(3,3,3-trifluoropropyl)succinamide], the half-life in “in vitro” is 98 min.

Take `NC(=O)[C@@H](CCC(F)(F)F)[C@@H](CCC(F)(F)F)C(=O)N[C@H]1N=C(c2ccc(CO)cc2)c2ccccc2NC1=O` [Example 30, (2R,3S)—N-((3S)-5-(4-(Hydroxymethyl)phenyl)-2-oxo-2,3-dihydro-1H-1,4-benzodiazepin-3-yl)-2,3-bis(3,3,3-trifluoropropyl)succinamide]: in the data set “in vitro”, the half-life came out at 92 min.

In the data set “in vitro”, `Cc1cccc(C2=N[C@H](NC(=O)[C@H](CCC(F)(F)F)[C@H](CCC(F)(F)F)C(N)=O)C(=O)Nc3ccccc32)c1` [Example 32, (2R,3S)—N-((3S)-5-(3-Methylphenyl)-2-oxo-2,3-dihydro-1H-1,4-benzodiazepin-3-yl)-2,3-bis(3,3,3-trifluoropropyl)succinamide] had a half-life of 82 min.

The compound `COc1cccc2c1NC(=O)[C@@H](NC(=O)[C@H](CCC(F)(F)F)[C@H](CCC(F)(F)F)C(N)=O)N=C2c1ccc(Cl)cn1` [Example 34, (2R,3S)—N-((3S)-5-(5-Chloro-2-pyridinyl)-9-methoxy-2-oxo-2,3-dihydro-1H-1,4-benzodiazepin-3-yl)-2,3-bis(3,3,3-trifluoropropyl)succinamide] registered a half-life in “in vitro” of 116 min.

In “in vitro”, `COc1ccc(C2=N[C@H](NC(=O)[C@H](CCC(F)(F)F)[C@H](CCC(F)(F)F)C(N)=O)C(=O)Nc3ccccc32)cc1` [Example 35, (2R,3S)—N-((3S)-5-(4-Methoxyphenyl)-2-oxo-2,3-dihydro-1H-1,4-benzodiazepin-3-yl)-2,3-bis(3,3,3-trifluoropropyl)succinamide] gave a half-life of 118 min. This half-life and that of the compound before are within 1.5-fold of each other.
